The results in this text go back to PubChem BioAssay (NCI).

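Results reflect a 48-hour exposure of cells in 96-well plates to compound at five concentrations. TGI denotes the concentration required for complete inhibition of growth.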 Bounds are passed on as bounds.

The first assay deals with RPMI-8226 leukemia. Nature of the assay: inhibition of tumour cell growth, NCI panel, 48 h.
For the compound `O=C(CCCN1CCC2(CC1)CC(c1ccccc1)OC2=O)c1ccc(F)cc1` (configuration not stated), the TGI is 51.3 µM.
Compound `O=C1NC(=O)C2C(=O)NC(=O)C1C2c1c(Cl)cccc1Cl` (configuration not stated) came in with a TGI of more than 67.2 µM.
`COc1cc2c(c(OC)c1)/C(=C/Sc1ccccc1)C(=O)N(C(C)(C)C)C2` had a TGI of 94.5 µM.
As for `CC(=O)C(CN(CC(C)C)CC(C)C)C(c1ccccc1)c1c(O)c2ccccc2oc1=O` (configuration not stated), the TGI is more than 100 µM.

A further assay relates to SNB-19 CNS. Nature of the assay: inhibition of tumour cell growth, NCI panel, 48 h.
`CCN1CCC(C)OP1(=O)Cc1ccccc1` (configuration not stated) yielded a TGI of more than 100 µM.
`COc1cc2c3c(c1)CCCN3CCC2` displayed a TGI of more than 10 µM.
As to `CCOC(=O)C1C(c2ccc3c(c2)OCO3)c2c([nH][nH]c2=O)CC1(C)O` (configuration not stated), the TGI is more than 100 µM.
Regarding `CC1(C)C=Cc2c(cc(O)c3c(=O)c4cc(Cl)ccc4[nH]c23)O1`, the TGI stood at 6.4 µM.
`CC(=O)c1ccc2c(c1)CC1(C2)Cc2cc3c(cc2C1=O)CCC3` (configuration not stated): the TGI was more than 100 µM.
The compound `CSc1nc2c(c(=O)[nH]1)N=C(c1ccc([N+](=O)[O-])cc1)CC(c1ccccc1)N2` (configuration not stated) displayed a TGI of more than 100 µM.
For the compound `CN(C)c1ccc(NN=C2SC(=Nc3ccccc3)C(=Nc3ccccc3)S2)cc1`, the TGI was more than 100 µM.
Turning to `C=C(Br)CNC(=O)Nc1ccc(Cl)c(Cl)c1`, the TGI worked out at 73.5 µM.
Still for that read-out and setting: the value for `CCC(C=O)P1(=O)OC(C)(C)CN1C(C)(C)C` (configuration not stated) was more than 100 µM; that for `CC1CC(C)C(C#N)N(C)c2ccccc21` (configuration not stated) was more than 100 µM; that for `NC(N)=NCCCC(NC(=O)c1cccc2c(=O)c3ccccc3[nH]c12)C(=O)O` (configuration not stated) was more than 100 µM.
In turn, `O=C(NNCC(O)COc1ccccc1)c1ccccc1` (configuration not stated) displayed a TGI of more than 100 µM.
For `COC(=O)[C@@H]1CC(C(C[N+](=O)[O-])c2ccc(O[Si](C)(C)C(C)(C)C)cc2)C(=O)N1C(=O)OC(C)(C)C` (some centres not stated), the TGI was more than 100 µM.
The same measure, in the same setting: the value for `O=S1(=O)OCCOS(=O)(=O)C1(F)Br` was more than 100 µM; that for `O=C(CCCN1CCC2(CC1)CC(c1ccccc1)OC2=O)c1ccc(F)cc1` (configuration not stated) was more than 100 µM.
The same measure, in the same setting: the value for `O=C1NC(=O)C2C(=O)NC(=O)C1C2c1c(Cl)cccc1Cl` (configuration not stated) was more than 100 µM; that for `CC(=O)C(CN(CC(C)C)CC(C)C)C(c1ccccc1)c1c(O)c2ccccc2oc1=O` (configuration not stated) was more than 100 µM.

Another assay deals with SK-MEL-28 melanoma. Nature of the assay: inhibition of tumour cell growth, NCI panel, 48 h.
Regarding `COc1cc2c3c(c1)CCCN3CCC2`, the TGI is more than 10 µM.
With `CCOC(=O)C1C(c2ccc3c(c2)OCO3)c2c([nH][nH]c2=O)CC1(C)O` (configuration not stated), the TGI was more than 100 µM.
In turn, `CC1(C)C=Cc2c(cc(O)c3c(=O)c4cc(Cl)ccc4[nH]c23)O1` came in with a TGI of more than 10 µM.
In turn, `CC(=O)c1ccc2c(c1)CC1(C2)Cc2cc3c(cc2C1=O)CCC3` (configuration not stated) had a TGI of 48.8 µM.
`CSc1nc2c(c(=O)[nH]1)N=C(c1ccc([N+](=O)[O-])cc1)CC(c1ccccc1)N2` (configuration not stated) showed a TGI of more than 100 µM.
In turn, `CN(C)c1ccc(NN=C2SC(=Nc3ccccc3)C(=Nc3ccccc3)S2)cc1` returned a TGI of more than 100 µM.
For the compound `C=C(Br)CNC(=O)Nc1ccc(Cl)c(Cl)c1`, the TGI was more than 100 µM.
Compound `CC1CC(C)C(C#N)N(C)c2ccccc21` (configuration not stated) registered a TGI of more than 100 µM.
Same read-out and setting: the value for `NC(N)=NCCCC(NC(=O)c1cccc2c(=O)c3ccccc3[nH]c12)C(=O)O` (configuration not stated) was more than 100 µM; that for `O=C(NNCC(O)COc1ccccc1)c1ccccc1` (configuration not stated) was more than 100 µM; that for `COC(=O)[C@@H]1CC(C(C[N+](=O)[O-])c2ccc(O[Si](C)(C)C(C)(C)C)cc2)C(=O)N1C(=O)OC(C)(C)C` (some centres not stated) was more than 100 µM.
Take `O=S1(=O)OCCOS(=O)(=O)C1(F)Br`: the TGI is more than 100 µM.
On to `O=C(CCCN1CCC2(CC1)CC(c1ccccc1)OC2=O)c1ccc(F)cc1` (configuration not stated), for which the TGI is more than 100 µM.
Same read-out and setting: with `O=C1NC(=O)C2C(=O)NC(=O)C1C2c1c(Cl)cccc1Cl` (configuration not stated) the figure was more than 100 µM.
In the case of `COc1cc2c(c(OC)c1)/C(=C/Sc1ccccc1)C(=O)N(C(C)(C)C)C2`, the TGI is more than 100 µM.
The compound `CC(=O)C(CN(CC(C)C)CC(C)C)C(c1ccccc1)c1c(O)c2ccccc2oc1=O` (configuration not stated) had a TGI of more than 100 µM.

The next assay has as its system DU-145 prostate. Nature of the assay: inhibition of tumour cell growth, NCI panel, 48 h.
`CCN1CCC(C)OP1(=O)Cc1ccccc1` (configuration not stated) came in with a TGI of more than 100 µM.
Consider `COc1cc2c3c(c1)CCCN3CCC2`, for which the TGI was more than 10 µM.
Consider `CCOC(=O)C1C(c2ccc3c(c2)OCO3)c2c([nH][nH]c2=O)CC1(C)O` (configuration not stated), for which the TGI is more than 100 µM.
In the case of `CC(=O)c1ccc2c(c1)CC1(C2)Cc2cc3c(cc2C1=O)CCC3` (configuration not stated), the TGI stood at 61.9 µM.
Consider `CSc1nc2c(c(=O)[nH]1)N=C(c1ccc([N+](=O)[O-])cc1)CC(c1ccccc1)N2` (configuration not stated), for which the TGI was more than 100 µM.
Compound `CN(C)c1ccc(NN=C2SC(=Nc3ccccc3)C(=Nc3ccccc3)S2)cc1` showed a TGI of more than 100 µM.
With `C=C(Br)CNC(=O)Nc1ccc(Cl)c(Cl)c1`, the TGI worked out at 89.5 µM.
Turning to `CCC(C=O)P1(=O)OC(C)(C)CN1C(C)(C)C` (configuration not stated), the TGI is more than 100 µM.
In the case of `CC1CC(C)C(C#N)N(C)c2ccccc21` (configuration not stated), the TGI was more than 100 µM.
Take `NC(N)=NCCCC(NC(=O)c1cccc2c(=O)c3ccccc3[nH]c12)C(=O)O` (configuration not stated): the TGI was more than 100 µM.
`O=C(NNCC(O)COc1ccccc1)c1ccccc1` (configuration not stated) registered a TGI of more than 100 µM.
On to `COC(=O)[C@@H]1CC(C(C[N+](=O)[O-])c2ccc(O[Si](C)(C)C(C)(C)C)cc2)C(=O)N1C(=O)OC(C)(C)C` (some centres not stated), for which the TGI is more than 100 µM.
`O=S1(=O)OCCOS(=O)(=O)C1(F)Br`: the TGI is more than 100 µM.
Still for that read-out and setting: the value for `O=C(CCCN1CCC2(CC1)CC(c1ccccc1)OC2=O)c1ccc(F)cc1` (configuration not stated) was more than 100 µM; that for `COc1cc2c(c(OC)c1)/C(=C/Sc1ccccc1)C(=O)N(C(C)(C)C)C2` was more than 100 µM.

The subject of another assay is TK-10 renal. Nature of the assay: inhibition of tumour cell growth, NCI panel, 48 h.
`CCN1CCC(C)OP1(=O)Cc1ccccc1` (configuration not stated) yielded a TGI of more than 100 µM.
Same read-out and setting: with `COc1cc2c3c(c1)CCCN3CCC2` the figure was more than 10 µM.
In turn, `CCOC(=O)C1C(c2ccc3c(c2)OCO3)c2c([nH][nH]c2=O)CC1(C)O` (configuration not stated) gave a TGI of more than 100 µM.
Compound `CC1(C)C=Cc2c(cc(O)c3c(=O)c4cc(Cl)ccc4[nH]c23)O1` yielded a TGI of more than 10 µM.
Take `CC(=O)c1ccc2c(c1)CC1(C2)Cc2cc3c(cc2C1=O)CCC3` (configuration not stated): the TGI stood at 71.3 µM.
In the case of `CN(C)c1ccc(NN=C2SC(=Nc3ccccc3)C(=Nc3ccccc3)S2)cc1`, the TGI was more than 100 µM.
Compound `C=C(Br)CNC(=O)Nc1ccc(Cl)c(Cl)c1` had a TGI of 62.4 µM.
The same measure, in the same setting: with `CCC(C=O)P1(=O)OC(C)(C)CN1C(C)(C)C` (configuration not stated) the figure was more than 100 µM.
The same measure, in the same setting: the value for `CC1CC(C)C(C#N)N(C)c2ccccc21` (configuration not stated) was more than 100 µM; that for `NC(N)=NCCCC(NC(=O)c1cccc2c(=O)c3ccccc3[nH]c12)C(=O)O` (configuration not stated) was more than 100 µM; that for `O=C(NNCC(O)COc1ccccc1)c1ccccc1` (configuration not stated) was more than 100 µM.
Compound `COC(=O)[C@@H]1CC(C(C[N+](=O)[O-])c2ccc(O[Si](C)(C)C(C)(C)C)cc2)C(=O)N1C(=O)OC(C)(C)C` (some centres not stated) showed a TGI of more than 100 µM.
With `O=S1(=O)OCCOS(=O)(=O)C1(F)Br`, the TGI was more than 100 µM.
`O=C(CCCN1CCC2(CC1)CC(c1ccccc1)OC2=O)c1ccc(F)cc1` (configuration not stated) gave a TGI of more than 100 µM.
As to `O=C1NC(=O)C2C(=O)NC(=O)C1C2c1c(Cl)cccc1Cl` (configuration not stated), the TGI was more than 100 µM.
